The test system of one assay is resident male rats. In words: Resident-Intruder Model of Stress and Aggression in Rats (neuroimaging). Type of assay: in vivo, rat. To be noted: oral administration, intruder stimulus. The text has this: Resident-Intruder Model of Stress and Aggression in Rats. Neuroimaging is used to assess the blockade of stress/arousal with test compound compared to control. The effect of AVN251-HCl on functional circuitry was examined using the imaging method for awake rats. Additional details of the assay are described in Ferris et al. (2008).
Male rats in the company of a female cage mate will piloerect in the presence of a male intruder. This piloerection is a sign of stress and aggressive intent and is associated with activation of stress/arousal circuits in the brain. […] Resident male rats from six male:female pairs were imaged while fully awake. During a single imaging session, these males were treated with vehicle or AVN251-HCl (5 mg/kg).
The total volume of brain activation for resident males confronted with their mate alone, mate plus intruder, and mate plus intruder in the presence of AVN251-HCl can be viewed as 3D models. While there appears to be a general decrease in BOLD signal in major regions with AVN251-HCl treatment, sexual motivation, as assessed by the presentation of a novel receptive female, was unaffected by V1a receptor blockade.
Stress circuit activation in response to an intruder male is assessed by obtaining brain scans viewed from a caudal/dorsal perspective as translucent shells. The localization of activated voxels is mapped as 3D volumes of activation, which are composed of 10 subjects each. Once fully registered and segmented, the statistical responses for each subject are averaged on a voxel-by-voxel basis. Those averaged voxels exceeding a 2.0% threshold are shown in their appropriate spatial location. Functional images are acquired on awake rats at 4.7 T.
The 3D volumes of activation are composed from results obtained with 10 subjects in each condition. […] Particular olfactory systems measured included the anterior olfactory nucleus, olfactory tubercle, piriform cortex, n. laterial olfactory tract, and entrorhinal cortex. Particular dopaminergic systems measured included the prelimbic cortex, accumbens, ventral pallidum, medial dorsal thalamus, and ventral tegmentum.
Awake rats were imaged when presented with their mate+an intruder, a highly stressful stimulus.

In the next assay the target is T1, V1b receptor (Homo sapiens, UniProt P47901).
T1 construct: expressed in transfected cells; host or cells: CHO-K1 (ATCC), vector PCI-neo
T1 sequence (P47901 1-424): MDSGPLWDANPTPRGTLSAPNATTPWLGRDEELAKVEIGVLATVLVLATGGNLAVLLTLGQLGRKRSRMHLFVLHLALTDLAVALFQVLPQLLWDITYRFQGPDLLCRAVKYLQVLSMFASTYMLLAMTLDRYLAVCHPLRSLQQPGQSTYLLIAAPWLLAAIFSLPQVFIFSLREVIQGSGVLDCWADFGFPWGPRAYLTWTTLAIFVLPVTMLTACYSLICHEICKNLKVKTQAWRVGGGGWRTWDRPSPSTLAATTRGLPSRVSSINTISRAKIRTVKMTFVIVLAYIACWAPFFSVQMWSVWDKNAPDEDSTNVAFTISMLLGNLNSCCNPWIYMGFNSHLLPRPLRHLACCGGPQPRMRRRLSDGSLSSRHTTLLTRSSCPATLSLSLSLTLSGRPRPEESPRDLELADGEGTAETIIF
Nature of the assay: Human or rat vasopressin V1b cell-based receptor binding assay. The note with it: selectivity table; read-out: inhibition data (Ki, nM), Receptor V1b. The text has this:
Human vasopression V1b receptor-expressing cells. Human vasopressin receptor 1b (hV1b) cDNA (see, Lolait et al., “Extrapituitary expression of the rat V1b vasopressin receptor gene” Proc. Natl. Acad. Sci. USA. 92:6783-7 (1995); de Keyzer et al., “Cloning and characterization of the human V3(V1b) pituitary vasopressin receptor” FEBS Lett. 356:215-20 (1994); Sugimoto et al., “Molecular cloning and functional expression of a cDNA encoding the human V1b vasopressin receptor” J. Biol. Chem. 269:27088-92 (1994)) was inserted into a mammalian cell expression vector PCI-neo (Promega) at EcoR1 site. The recombinant plasmid carrying hV1b cDNA was identified from transformed E. Coli clones and used for the transfection of Chinese hamster ovary cell (CHO-K1, ATCC). Two micrograms of hV1b receptor DNA was introduced into 10^5 CHO cells cultured in 6-well plate, using Fugene-6 mediated transfection technique (Boehringer Mannheim). Twenty-four hrs post transfection, Cells were then cultured under selection of G-418 (0.25 mg/ml) supplemented to the culture medium. Three days later, limited dilution was carried out to obtain single cell clones in 96-well plates. […]
Human or rat vasopression V1b cell-based receptor binding assay. […] Samples were counted in a liquid scintillation counter (Beckman LS3801). IC50 and Ki values were calculated using Prism Curve fitting software. […]

In a further assay the target is V2 (Homo sapiens, UniProt P30518). Nature of the assay: V2 receptor inhibition data (Ki). The note with it: selectivity table. Type of assay: binding.
In a further assay the test system is male Long Evans rats. In words: Predatory fear conditioning model of PTSD (ferret/sucrose, fMRI of awake rats). Type of assay: in vivo, rat. The text has this: The use of the compounds and compositions described herein for treating PTSD and stress-related affective illness is established using a model of predatory fear conditioning. The model uses fMRI data of rats exposed to a ferret, a natural predator, as the unconditioned stimulus while experiencing the taste of sucrose, which is highly rewarding, as the conditioned stimulus. The taste of sucrose becomes associated with the traumatic memory of the ferret. […] This hyperarousal pattern of brain activity in response to a stimulus associated with a traumatic memory is characteristic of PTSD. […] Thus, the memory of fear is worse than fear itself. Treatment with compounds and compositions described herein block the hyperarousal seen with the sucrose-associated traumatic memory in untreated animals. The compounds described herein are efficacious in a this new preclinical model of PTSD in rats that utilized predatory fear as the unconditioned stimulus and the taste of sucrose as the conditioned stimulus. […] Compounds described herein are also efficacious in established models of depression (social interaction test), anxiety (Elevated Plus Maze, Light:Dark Shuttle Box), and aggression (resident:intruder test). The predatory fear conditioning juxtaposes an aversive unconditioned stimulus (threat of predation), with the taste of sucrose as the conditioned stimulus. During an imaging session, awake rats are exposed to a live, sable ferret placed into the bore of the magnet. This presentation of the predator is done with and without the application of sucrose to the tongue of the rat. Retrieval of the memory weeks later by the application of sucrose alone (as a Conditioned Stimulus) in the absence of the ferret elicits a robust increase in brain activity that far exceeds the initial presentation of the predator. […]

Molecules are shown by their SMILES. “Also recorded” adds a separate entry of the source. A value given as a limit tells only on which side of the number the result lay.

Sequence of V2 (P30518 whole entry): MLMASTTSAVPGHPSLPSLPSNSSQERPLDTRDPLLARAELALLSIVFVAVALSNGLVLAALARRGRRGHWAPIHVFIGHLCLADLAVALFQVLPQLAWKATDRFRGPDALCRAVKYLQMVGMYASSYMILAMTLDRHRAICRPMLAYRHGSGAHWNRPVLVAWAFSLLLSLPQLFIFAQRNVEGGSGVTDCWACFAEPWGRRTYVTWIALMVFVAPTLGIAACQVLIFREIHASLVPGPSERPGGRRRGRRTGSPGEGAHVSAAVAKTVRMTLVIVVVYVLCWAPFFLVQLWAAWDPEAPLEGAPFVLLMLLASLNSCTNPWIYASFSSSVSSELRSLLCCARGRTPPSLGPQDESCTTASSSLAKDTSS

Regarding `C[C@@H](NC(=O)[C@@H](CC(=O)N1CCC(N2CCCCC2)CC1)N1C(=O)[C@@H](N2C(=O)OC[C@@H]2c2ccccc2)[C@H]1C=Cc1ccccc1)c1ccccc1` [Example 224, 2(R)-[[4-(Piperidinyl)piperidinyl]carbonylmethyl]-2-[3(S)-(4(S)-phenyloxazolidin-2-on-3-yl)-4(R)-(2-styryl)azetidin-2-on-1-yl]acetic acid N—[(R)-α-methylbenzyl]amide], the “stress and aggressive motivation compared to controls” value in the assay with resident male rats is “blocked stress and aggressive motivation”. Also, the Ki on V1b receptor and at V2 was more than 1000 nM each time.

With `C[C@@H](NC(=O)[C@@H](CC(=O)N1CCC(N2CCCCC2)CC1)N1C(=O)[C@@H](N2C(=O)OC[C@@H]2c2ccccc2)[C@H]1/C=C/c1cccc(I)c1)c1ccccc1` [Example 266], in the assay on male Long Evans rats, the “retrieval of predatory fear memory” value was “effective in blocking retrieval of predatory fear memory”. Besides, the “predatory fear response in the unconditioned test animal (activation for ferret alone)” value with male Long Evans rats (pretreatment 5 mg/kg body weight) is on record as “retained”. Also, the “hyperarousal brain activation pattern (BOLD) on re-exposure to sucrose alone” value with male Long Evans rats (pretreatment 5 mg/kg body weight, two weeks after conditioning, listed as AVN576) is “blocked the hyperarousal brain activation pattern; also recorded: significantly reduces brain activation”.
